EC50, AC50 and IC50 data for 3 compounds are collected here from ChEMBL document CHEMBL1201862, “PubChem BioAssay data set” (2004).

Assay [1] in a line: NIH-3T3 fibroblast cytotoxicity, dose response, cytotoxicity control, cell-based, fluorescence, Alamar Blue, secondary assay (AID 2327).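 Further: NIH-3T3 mouse fibroblasts cultured with fluconazole at 8 µg/mL.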 The assay is classed as functional.
Assay [2] is described as follows: C. albicans growth with fluconazole, confirmation, fluorescence, retest (AID 2467). The assay is classed as functional, cell-based.
Assay [3] is described as follows: inhibitors of intracellular T. cruzi replication, confirmation, NIH3T3 host cells, beta-gal luminescence (AID 2044).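 Further: intracellular parasites grown in NIH/3T3 mouse fibroblasts as host cells; luminescent beta-galactosidase reporter signal from transgenic T. cruzi replicating inside host cells; inhibitors lower the luminescence signal.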 The assay is classed as functional, cell-based.
A short description of assay [4]: growth suppression of PTEN-null colon cells, dose response, cell-based, HCT116 PTEN knockout (AID 1047).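 Further: HCT116 colon tumor cells with PTEN knocked out; cells exposed to compound for 60 hours before readout; potency for loss of cell viability measured by luminescence.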 In kind it is functional.
Assay [5] is described as follows: cytotoxicity toward NIH3T3 fibroblasts, dose response, counter-screen, cell-based, ATP luminescence, mouse fibroblasts (AID 2010).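 Further: cells exposed to compound for about 90 hours before reading.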 In kind it is functional. (In general: A counterscreen serves to expose hits that act by an unwanted route or on another target.)
Assay [6] in a line: growth suppression of beta-catenin-knockout colon cells, dose response, cell-based, HCT116, human colon tumor (AID 1045).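 Further: HCT116 colon tumor cells with beta catenin knocked out; cells exposed to compound for 60 hours.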 The assay is classed as functional.
In the next assay the target is T1, CAAX prenyl protease 1 (Saccharomyces cerevisiae S288c, UniProt P47154).
T1 sequence (P47154 whole entry): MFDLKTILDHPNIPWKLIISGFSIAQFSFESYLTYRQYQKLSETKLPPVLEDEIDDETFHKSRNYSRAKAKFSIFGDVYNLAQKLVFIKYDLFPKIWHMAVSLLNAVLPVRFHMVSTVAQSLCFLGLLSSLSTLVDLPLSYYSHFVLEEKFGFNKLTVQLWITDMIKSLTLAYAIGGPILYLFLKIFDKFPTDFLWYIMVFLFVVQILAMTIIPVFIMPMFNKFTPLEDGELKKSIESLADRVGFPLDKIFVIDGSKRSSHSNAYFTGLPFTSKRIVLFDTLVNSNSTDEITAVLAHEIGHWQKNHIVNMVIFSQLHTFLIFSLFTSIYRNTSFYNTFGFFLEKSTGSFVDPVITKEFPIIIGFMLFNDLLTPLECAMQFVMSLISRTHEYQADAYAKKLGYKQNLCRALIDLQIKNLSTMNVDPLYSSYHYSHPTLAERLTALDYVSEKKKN
The assay can be described thus: Ste24 protease inhibitors, dose response, biochemical, S. cerevisiae, plate reader, cherry-pick (AID 488815).

Assay [7] addresses T2, DNA repair and recombination protein RAD54-like (Homo sapiens, UniProt Q92698).
T2 sequence (Q92698 whole entry): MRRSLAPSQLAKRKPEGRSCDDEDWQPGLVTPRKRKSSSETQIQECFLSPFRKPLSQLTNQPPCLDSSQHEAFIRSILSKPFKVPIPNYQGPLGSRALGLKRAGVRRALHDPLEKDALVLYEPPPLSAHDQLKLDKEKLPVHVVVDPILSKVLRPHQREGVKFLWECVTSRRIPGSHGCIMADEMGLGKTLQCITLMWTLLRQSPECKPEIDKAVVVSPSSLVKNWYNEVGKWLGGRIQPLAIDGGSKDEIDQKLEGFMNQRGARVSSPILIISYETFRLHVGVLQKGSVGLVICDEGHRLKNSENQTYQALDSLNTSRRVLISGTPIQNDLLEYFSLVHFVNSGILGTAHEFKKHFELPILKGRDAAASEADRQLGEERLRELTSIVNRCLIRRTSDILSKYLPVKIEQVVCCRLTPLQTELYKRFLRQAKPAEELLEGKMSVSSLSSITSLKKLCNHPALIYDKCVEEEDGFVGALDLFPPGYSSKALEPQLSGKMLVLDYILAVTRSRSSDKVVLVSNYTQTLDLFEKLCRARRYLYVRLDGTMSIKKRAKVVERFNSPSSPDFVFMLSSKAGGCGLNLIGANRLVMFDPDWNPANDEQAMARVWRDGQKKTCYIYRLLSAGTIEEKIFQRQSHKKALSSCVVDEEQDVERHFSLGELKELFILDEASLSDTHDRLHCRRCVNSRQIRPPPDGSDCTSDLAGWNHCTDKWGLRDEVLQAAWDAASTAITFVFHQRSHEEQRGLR
The assay can be described thus: inhibitors of human RAD54 branch migration, confirmation, biochemical, fluorescence, cherry-picked samples, dose series (AID 651657). In kind it is functional.

The target of the next assay is T3, Exodeoxyribonuclease V (Escherichia coli (strain K12), UniProt P04993+P07648+P08394).
T3 sequence (P04993 whole entry): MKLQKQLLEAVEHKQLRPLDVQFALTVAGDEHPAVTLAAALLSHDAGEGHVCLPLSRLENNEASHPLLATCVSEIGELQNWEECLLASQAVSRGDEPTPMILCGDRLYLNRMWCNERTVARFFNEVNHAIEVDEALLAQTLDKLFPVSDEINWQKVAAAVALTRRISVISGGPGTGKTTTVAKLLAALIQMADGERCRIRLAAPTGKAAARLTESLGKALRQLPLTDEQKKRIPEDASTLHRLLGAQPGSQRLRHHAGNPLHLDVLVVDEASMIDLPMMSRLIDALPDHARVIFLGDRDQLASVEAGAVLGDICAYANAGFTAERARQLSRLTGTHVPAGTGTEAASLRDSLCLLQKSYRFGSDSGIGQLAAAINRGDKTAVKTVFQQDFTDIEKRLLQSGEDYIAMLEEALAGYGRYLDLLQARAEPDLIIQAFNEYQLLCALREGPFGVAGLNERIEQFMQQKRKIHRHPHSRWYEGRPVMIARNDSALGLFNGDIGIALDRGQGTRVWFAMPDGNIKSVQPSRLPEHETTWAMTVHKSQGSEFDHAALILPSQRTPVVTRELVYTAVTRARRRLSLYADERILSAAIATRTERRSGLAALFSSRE
T3 sequence (P07648 whole entry): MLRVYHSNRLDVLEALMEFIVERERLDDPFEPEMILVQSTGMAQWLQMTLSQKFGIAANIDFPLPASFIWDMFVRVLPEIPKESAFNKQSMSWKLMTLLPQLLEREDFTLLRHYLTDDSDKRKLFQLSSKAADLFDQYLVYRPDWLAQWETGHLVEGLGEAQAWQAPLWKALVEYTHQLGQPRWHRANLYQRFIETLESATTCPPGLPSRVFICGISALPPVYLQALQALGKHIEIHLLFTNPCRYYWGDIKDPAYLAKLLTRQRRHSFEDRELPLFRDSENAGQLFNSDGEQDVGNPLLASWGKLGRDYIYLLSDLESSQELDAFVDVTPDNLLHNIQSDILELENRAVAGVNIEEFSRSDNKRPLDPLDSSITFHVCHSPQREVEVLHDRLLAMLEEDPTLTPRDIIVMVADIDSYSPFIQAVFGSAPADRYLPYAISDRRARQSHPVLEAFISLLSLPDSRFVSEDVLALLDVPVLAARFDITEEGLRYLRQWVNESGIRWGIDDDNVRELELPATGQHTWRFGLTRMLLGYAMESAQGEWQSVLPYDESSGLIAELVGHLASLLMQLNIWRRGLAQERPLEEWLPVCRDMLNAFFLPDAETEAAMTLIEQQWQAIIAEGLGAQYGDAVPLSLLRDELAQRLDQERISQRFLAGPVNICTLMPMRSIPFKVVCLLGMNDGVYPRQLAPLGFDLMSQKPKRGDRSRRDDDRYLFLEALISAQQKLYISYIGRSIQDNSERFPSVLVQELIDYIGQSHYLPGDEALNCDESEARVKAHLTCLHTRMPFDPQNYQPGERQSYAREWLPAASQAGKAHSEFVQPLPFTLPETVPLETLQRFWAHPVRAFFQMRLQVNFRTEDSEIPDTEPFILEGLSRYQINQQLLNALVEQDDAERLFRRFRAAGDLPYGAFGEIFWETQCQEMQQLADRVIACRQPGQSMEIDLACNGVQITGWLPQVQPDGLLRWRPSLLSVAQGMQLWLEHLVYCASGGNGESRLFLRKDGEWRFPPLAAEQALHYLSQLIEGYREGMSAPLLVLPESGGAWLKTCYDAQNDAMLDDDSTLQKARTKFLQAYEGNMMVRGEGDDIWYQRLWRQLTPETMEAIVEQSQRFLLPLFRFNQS
T3 sequence (P08394 whole entry): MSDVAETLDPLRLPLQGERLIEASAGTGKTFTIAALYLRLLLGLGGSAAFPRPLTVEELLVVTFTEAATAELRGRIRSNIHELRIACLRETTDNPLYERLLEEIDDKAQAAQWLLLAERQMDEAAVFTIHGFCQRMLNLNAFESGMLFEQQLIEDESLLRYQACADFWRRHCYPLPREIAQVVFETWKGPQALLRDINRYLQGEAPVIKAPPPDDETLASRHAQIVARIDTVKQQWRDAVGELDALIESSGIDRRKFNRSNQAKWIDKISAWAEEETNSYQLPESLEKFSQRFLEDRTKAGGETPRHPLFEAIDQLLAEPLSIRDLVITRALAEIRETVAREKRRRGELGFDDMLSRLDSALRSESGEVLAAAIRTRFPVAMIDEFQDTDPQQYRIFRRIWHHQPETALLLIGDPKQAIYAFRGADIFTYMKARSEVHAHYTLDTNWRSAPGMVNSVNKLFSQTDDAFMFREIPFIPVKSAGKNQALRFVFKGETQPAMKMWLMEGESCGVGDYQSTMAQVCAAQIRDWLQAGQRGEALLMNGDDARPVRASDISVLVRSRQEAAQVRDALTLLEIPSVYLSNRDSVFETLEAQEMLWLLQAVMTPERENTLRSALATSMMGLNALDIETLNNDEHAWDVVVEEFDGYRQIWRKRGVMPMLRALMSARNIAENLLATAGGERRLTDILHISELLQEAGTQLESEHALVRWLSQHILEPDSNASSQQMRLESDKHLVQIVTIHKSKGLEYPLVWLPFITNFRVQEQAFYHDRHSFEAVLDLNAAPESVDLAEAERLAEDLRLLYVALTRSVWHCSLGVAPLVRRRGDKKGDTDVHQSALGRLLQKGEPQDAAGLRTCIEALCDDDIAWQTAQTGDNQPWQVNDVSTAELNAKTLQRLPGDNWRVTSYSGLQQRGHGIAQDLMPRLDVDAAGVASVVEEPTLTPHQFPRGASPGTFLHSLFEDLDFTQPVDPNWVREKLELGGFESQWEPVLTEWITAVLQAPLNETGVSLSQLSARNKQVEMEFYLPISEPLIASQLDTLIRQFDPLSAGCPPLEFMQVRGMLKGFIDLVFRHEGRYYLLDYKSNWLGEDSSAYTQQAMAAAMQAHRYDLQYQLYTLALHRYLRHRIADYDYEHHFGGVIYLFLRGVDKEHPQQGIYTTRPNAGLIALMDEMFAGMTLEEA
The assay can be described thus: E. coli RecBCD inhibitors, dose response, counter-screen for AddAB inhibitor project, absorbance, V66 E. coli, mutant T4 phage (AID 492957). In kind it is functional, cell-based, Escherichia coli str. K-12 substr. MG1655.

Assay [8] in a line: Counterscreen for AddAB inhibitors: absorbance-based bacterial cell-based high throughput dose response assay for inhibitors of bacterial viability. [Related pubchem assays (depositor defined):AID435030, AID449728, AID449731, AID488942, AID488955, AID488956]. In kind it is functional.
Assay [9] in a line: cells. The assay is classed as functional, cell-based.
The nature of assay [10]: cells. The assay is classed as functional, cell-based. This is another data set of the same source.
Another assay relates to HEK293. Put plainly: inhibitors of LMP1-driven NF-kB reporter, dose response, cell-based, HEK293, luciferase, cherry-pick (AID 588343). In kind it is functional. The note with it: Homo sapiens.
Assay [11] concerns the target Heat shock protein HSP 90-alpha (Homo sapiens, UniProt P07900). The assay is classed as functional, organism-based.
For another assay, the system named is INS1. The assay can be described thus: beta cell apoptosis inhibitors, cytokine rescue, dose response, luminescence, retest (AID 449756).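 Further: cell death triggered by IL-1 beta plus TNF-alpha plus IFN-gamma mixture; protective hits raise ATP signal compared with cytokine alone wells.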 The assay is classed as functional, cell-based. The note with it: Rattus norvegicus.
Assay [12] is described as follows: Shn3 3'UTR reporter inhibitors, dose response, cell-based, Clone20 osteoblasts, firefly luciferase, cherry-picked (AID 624132).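 Further: firefly luciferase luminescence from reporter carrying the Shn3 3'UTR in osteoblasts.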 In kind it is functional.
The nature of assay [13]: HepG2 cell cytotoxicity, dose response, cytotoxicity control for Shn3 inhibitor project, CellTiter-Glo, cherry-picked (AID 624134). The assay is classed as functional, cell-based.
Assay [14] in a line: control 3'UTR Renilla luciferase suppression, dose response, counter-screen for Shn3 inhibitor project, cell-based, Clone20-Shn3RL, cherry-picked (AID 624133). The assay is classed as functional.

Active and inactive are the calls of the source.

With `CCc1nc(Nc2ccncc2)c2oc3ccccc3c2n1`, the EC50 in assay [1] is > 160 µM (inactive); in assay [2], 2.48 µM (active); in [3], 0.6 µM (active); in assay [4], 6.58 µM (active); in [5], > 60 µM (not active); in [6] it was 6.45 µM (active). The half-maximal activity concentration (AC50) on CAAX prenyl protease 1 is 5.23 µM (active); in [7], 15.5 µM (active).

Regarding `COc1ccccc1/C=C1\SC(=S)N(CCC(=O)NNC(=O)c2ccccc2O)C1=O`, the IC50 (on Exodeoxyribonuclease V; in [8]) was > 119 µM (inactive) in each case.

Regarding `CCC(=O)NC(c1ccc(Cl)cc1Cl)c1ccc2cccnc2c1O` (centres undefined), the EC50 in assay [1] was 3.86 µM (inconclusive); in the assay “cells [9]”, 7.3 µM (active); in assay [2] it was 0.354 µM (active); in assay [3], 0.296 µM (active); in “cells [10]”, > 350 µM (not active); in [5], 0.434 µM (active). Besides, the IC50 (on Exodeoxyribonuclease V; in assay [8]) was > 119 µM (inactive) throughout. The AC50 in the assay with HEK293 is 4.55 µM (active); in assay [11], 3.22 µM (active); in the assay with INS1, 0.478 µM (active); in assay [12] it was 1.19 µM (active); in [13], 28.8 µM (active); in [14], 1.33 µM (active).

Broadly, the EC50 is the concentration that produces a half-maximal response. As usually defined, the AC50 is the concentration at which the activity in the assay is half-maximal. Usually IC50 stands for the point on the concentration scale where inhibition reaches its midpoint.
